This series in a line: Stability of the physical form on storage under ambient conditions. As to conditions: stable = remains substantially in the same physical form for at least a month at 20° C./60% RH. The class given is physicochemical. How it is done: The term “stable,” as used herein, refers to the tendency to remain substantially in the same physical form for at least a month, preferably at least 6 months, more preferably at least a year, still more preferably at least 2 years, when stored under ambient conditions (20° C./60% RH) without external treatment. Substantially the same physical form in this context means that at least 50%, preferably at least 80% and more preferably at least 90% of the crystalline form remains.

For the compound `O=C1C(O)=C([C@H]2CC[C@H](c3ccc(Cl)cc3)CC2)C(=O)c2ccccc21` [Form IPCA-ATO, trans-2-[4-(4-chlorophenyl)cyclohexyl]-3-hydroxy-1,4-naphthoquinone], the “Stability of the crystalline form” value is “stable”.

Values taken from US7847127B2, “Process for preparation of atovaquone and novel intermediates thereof” (IPCA Laboratories Limited, priority 2007, dated 2010).
